In general, IC50 refers to the concentration that inhibits the measured activity by half. A high value points to weaker potency in that assay. As a reminder, the efflux ratio is the permeability from basolateral to apical divided by that in the opposite direction, in the common usage. A word on the Papp A→B: it is how fast a substance crosses the layer from the apical side. Low values mean poor permeation, high ones ready permeation. One may read the EC50 as the concentration giving half of the maximal effect. A lower EC50 goes with higher potency in that assay.

A value given as a limit tells only on which side of the number the result lay.

One data set deals with T1, UCHL1 (Homo sapiens, UniProt P09936).
T1 sequence (P09936 1-223): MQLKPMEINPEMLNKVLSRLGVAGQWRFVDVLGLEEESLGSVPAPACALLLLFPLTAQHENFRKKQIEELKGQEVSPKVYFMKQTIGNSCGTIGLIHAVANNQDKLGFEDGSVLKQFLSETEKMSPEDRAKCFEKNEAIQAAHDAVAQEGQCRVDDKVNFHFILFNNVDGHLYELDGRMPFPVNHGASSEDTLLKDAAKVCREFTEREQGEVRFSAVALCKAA
In words: DUB biochemical IC50 assay, UCHL1.

A further data set concerns TOM20 ubiquitylation. In words: TOM20-ubiquitylation assay. The format is cell-based, Human. As to conditions: antimycin A/oligomycin mitophagy trigger; n = 5, (0.015-0.075) printed below. The text has this:
Human cell lines can be challenged with mitochondrial depolarizing agents (ionophores (eg. CCCP, valinomycin), mitochondrial complex inhibitors (oligomycin, antimycin A)) to induce ubiquitylation of TOM20, which is then further promoted in the presence of USP30 inhibitors. TOM20 ubiquitylation is subsequently assessed through western blotting of the cell lysates, with TOM20 ubiquitylation adduct detection possible due to an 8 kDa molecule weight increase for each molecule of ubiquitin added, resulting in laddering of a TOM20 immunoreactive band. TOM20-ubiquitylation levels can be quantified using chemiluminescence densitometry of laddered immunoreactive bands.

In another data set the test system is Cathepsins B, K, L, S, V. In words: Cathepsin IC50, range over B, K, L, S, V. The format is biochemical. As to conditions: for Selectivity preference for USP30 v cathepsins: range over cathepsins B, K, L, S; for IC50: range over the five cathepsins.
Another data set has as its target Cathepsin B (Homo sapiens, UniProt P07858). In words: Cathepsin IC50, cathepsin B. The format is biochemical.
The nature of another data set: Hepatocyte Cl human. The format is in vitro ADME. As to conditions: human hepatocytes. Here is the method:
Hep Cl human: in vitro hepatocyte clearance in human cells.
(§1) Clu: in vitro clearance. Clu as defined here is the scaled clearance, in turn calculated from the intrinsic clearance. The intrinsic clearance is the predicted clearance due to hepatic metabolic reactions, determined from incubation of a compound in a hepatocyte preparation.

For a further data set, the target named is Cathepsin S (Homo sapiens, UniProt P25774). In words: Cathepsin IC50, cathepsin S. The format is biochemical.
Another data set can be described thus: Hepatocyte Cl mouse. The format is in vitro ADME. The note with it: mouse hepatocytes. Here is the method:
Hep Cl mouse: in vitro hepatocyte clearance in mouse cells.
as §1

Another data set concerns the target Cathepsin L (Homo sapiens, UniProt P07711). Description: Cathepsin IC50, cathepsin L. The format is biochemical.
Data set [1] is described as follows: Plasma free fraction, equilibrium dialysis. The format is in vitro ADME. The note with it: mouse plasma; read-out: Binding Mouse Plasma fu, p. The text has this: Plasma fu,p: The free fraction of a compound in plasma preparation determined by in vitro equilibrium dialysis. It is understood that only unbound (free) compound is capable of engaging with the target.
For orientation: In equilibrium dialysis free small molecules cross a membrane that holds back macromolecules.

For data set [2], the system named is P-glycoprotein (MDR1), human. Description: MDR1-MDCK flux assay. The format is in vitro ADME, Canine. The note with it: dog. The text has this: The treatment of CNS disorders, including Alzheimer's disease, Parkinson's disease, and other disorders described herein, requires drug molecules to target the brain, which requires adequate penetration of the blood brain barrier. […] The probability that a compound can cross the blood brain barrier may be measured by an in vitro flux assay utilizing a MDR1-MDCK cell monolayer (Madin-Darby Canine Kidney cells transfected with MDR-1 resulting in overexpression of the human efflux transporter P-glycoprotein). Additionally, exposure may also be measured directly in brain and plasma using in vivo animal models.
MDR1-MDCK (Madin-Darby Canine Kidney cell monolayer) (in vitro) flux assay.

The next data set concerns the target T2, Endogenous USP30 (Homo sapiens, UniProt Q70CQ3).
T2 construct: USP30 endogenous cellular target engagement western blot (WB) assay; endogenous in cells; host or cells: HeLa stably overexpressing YFP-Parkin
T2 sequence (Q70CQ3 1-517): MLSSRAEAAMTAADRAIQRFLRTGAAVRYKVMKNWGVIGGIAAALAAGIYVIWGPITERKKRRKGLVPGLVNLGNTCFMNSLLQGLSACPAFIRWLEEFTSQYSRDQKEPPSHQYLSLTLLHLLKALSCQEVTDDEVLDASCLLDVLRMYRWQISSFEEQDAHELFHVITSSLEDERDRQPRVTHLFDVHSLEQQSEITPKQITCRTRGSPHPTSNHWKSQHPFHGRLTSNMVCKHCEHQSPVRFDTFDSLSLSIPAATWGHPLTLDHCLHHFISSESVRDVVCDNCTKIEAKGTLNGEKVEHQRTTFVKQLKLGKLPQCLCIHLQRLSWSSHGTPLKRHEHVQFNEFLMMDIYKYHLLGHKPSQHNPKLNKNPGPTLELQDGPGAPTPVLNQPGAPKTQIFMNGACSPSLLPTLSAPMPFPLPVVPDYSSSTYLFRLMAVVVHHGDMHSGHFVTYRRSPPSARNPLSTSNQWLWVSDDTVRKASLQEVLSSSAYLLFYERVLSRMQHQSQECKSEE
In words: USP30 endogenous cellular target engagement western blot assay (Cell TE WB). The note with it: Hela cells stably overexpressing YFP-Parkin, 1 hour. The format is cell-based. Here is the method:
Hela cells stably overexpressing YFP-Parkin were seeded into 6 well dishes. Once adhered, cells were treated with appropriate concentrations of test compounds or vehicle control for 1 hour at 37° C., 5% CO2. Whole cell lysates were prepared by scraping the cells into cold PBS, centrifuging and lysing in lysis buffer (50 mM Tris-base, pH 7.5, 50 mM NaCl, 1% NP-40/Igepal CA-630, 2 mM MgCl2, 10% Glycerol, 5 mM beta-mercaptoethanol, cOmplete mini tablets EDTA free (Roche), PhosStop tablets (Roche)) for 10 mins. The equivalent of 20 μg of protein from the cleared cell lysate was incubated with a final conc of 2.5 μM HA-Ahx-Ahx-Ub-VME probe at room temperature. The reaction was stopped by addition of 5×SDS sample loading buffer and proteins separated by SDS PAGE and western blotting. USP30 was detected using an anti-USP30 Sheep S746D antibody (MRC PPU Reagents and Services) and a rabbit anti sheep secondary IgG (H+L) horseradish peroxidase conjugated (Thermo #31480) and visualised using ECL reagent (GE #RPN2109) on a GE LAS4000 imager. Target engagement was measured by quantitation of the bands corresponding to USP30 and USP30 bound to the Ub-VME probe and expression of this proportion compared to vehicle treated control.
Cell TE WB: USP30 endogenous cellular target engagement western blot (WB) assay. Assays the activity of compounds against USP30 in cells using an irreversible activity probe to monitor USP30 activity.
In general terms: Immunoblotting shows a protein as a band on a membrane.

Cathepsin L, sequence (P07711 114-333, species assumed): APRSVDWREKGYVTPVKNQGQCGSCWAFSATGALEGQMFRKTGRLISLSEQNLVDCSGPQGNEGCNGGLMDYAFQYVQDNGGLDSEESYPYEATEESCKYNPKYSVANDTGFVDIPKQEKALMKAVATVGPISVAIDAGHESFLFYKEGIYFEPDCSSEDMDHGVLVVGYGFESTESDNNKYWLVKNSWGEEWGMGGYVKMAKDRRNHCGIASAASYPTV
Cathepsin S, sequence (P25774 115-331, species assumed): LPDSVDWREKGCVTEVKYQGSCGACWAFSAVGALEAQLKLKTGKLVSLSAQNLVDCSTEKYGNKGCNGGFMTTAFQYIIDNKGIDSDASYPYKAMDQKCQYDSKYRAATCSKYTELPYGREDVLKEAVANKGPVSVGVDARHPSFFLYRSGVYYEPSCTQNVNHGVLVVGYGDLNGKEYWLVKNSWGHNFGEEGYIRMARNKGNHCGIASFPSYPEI

As to `C[C@@H]1C[C@@H](NC(=O)c2nnc(-c3cccc(C#N)c3)o2)CN1C#N` [Example 1, N-((3R,5R)-1-Cyano-5-methylpyrrolidin-3-yl)-5-(3-cyanophenyl)-1,3,4-oxadiazole-2-carboxamide], the “DUB selectivity preference for USP30 v UCHL1” value at UCHL1 is recorded as 10300. For the same molecule, the IC50 against UCHL1 is > 300 µM; in the data set on Cathepsins B, K, L, S, V, 26.2 to 300 µM; at Cathepsin B, 154 µM; on Cathepsin S it was > 300 µM; against Cathepsin L it was 30.9 µM. The “TOM20-Ub 1.5-fold gain EC1.5x (μM)” value in the data set with TOM20 ubiquitylation is reported as 0.035 (n = 5) μM. In addition, the “Selectivity preference for USP30 v cathepsins” value with Cathepsins B, K, L, S, V is given as 900-10300. Besides, the “Hepatocyte Cl human scaled Clu” value in “Hepatocyte Cl human” was determined as 6 mL/min/kg. Also, the “Hepatocyte Cl mouse scaled Clu” value in “Hepatocyte Cl mouse” came to 45 mL/min/kg. Also, on Cathepsin L (v Reference Example A), the “fold more selective for USP30 over cathepsin L than A” value worked out at 27 fold. Further, the “fold more selective for USP30 over cathepsin L than B” value at Cathepsin L (v Reference Example B) is reported as 59 fold. The “fold more selective for USP30 over cathepsin L than C” value at Cathepsin L (v Reference Example C) turned out to be 18 fold. Also, at Cathepsin L (v Reference Example D), the “fold more selective for USP30 over cathepsin L than D” value was 19 fold. The “fold more selective for USP30 over cathepsin L than E” value on Cathepsin L (v Reference Example E) amounted to 333 fold. Moreover, on Cathepsin L (v Reference Example F), the “fold more selective for USP30 over cathepsin L than F” value is 3135 fold. In addition, the fraction unbound in [1] stood at 0.54. The efflux ratio in [2] came out at 81. In [2] (A-B), this molecule came in with a Papp A→B of 0.9 ×10⁻⁶ cm/s. For the same molecule, the EC50 on Endogenous USP30 amounted to 0.064 µM.
For the molecule `N#Cc1cccc(-c2nnc(C(=O)N[C@@H]3C[C@@H](CF)N(C#N)C3)o2)c1` [Example 3, N-((3R,5S)-1-Cyano-5-(fluoromethyl)pyrrolidin-3-yl)-5-(3-cyanophenyl)-1,3,4-oxadiazole-2-carboxamide], the “DUB selectivity preference for USP30 v UCHL1” value at UCHL1 amounted to 15400. The IC50 at UCHL1 was 200 µM; in the data set with Cathepsins B, K, L, S, V, 9.9 to 256 µM; against Cathepsin B it was 29.4 µM; on Cathepsin S it was 256 µM; against Cathepsin L, 9.9 µM. The “Selectivity preference for USP30 v cathepsins” value in the data set with Cathepsins B, K, L, S, V is recorded as 760-19700. For the same molecule, at Endogenous USP30, a half-maximal response (EC50) required 0.037 µM.

The values are drawn from patent publication US20220315572A1, “SUBSTITUTED CYANOPYRROLIDINES WITH ACTIVITY AS USP30 INHIBITORS” (MISSION THERAPEUTICS LIMITED, priority 2019, published 2022).
